Measured values from a melting point compilation (Tetko et al.; mined from patent text by program, amines drawn as free bases though some values may be those of a salt).

Row | Structure (SMILES) | melting point [°C]
1 | CC(C)(C)NC(=O)[C@@H]1CSCN1C[C@@H](O)[C@H](Cc1ccccc1)NC(=O)OCc1ccccc1 | 62 to 65
2 | CCc1cccc2c(/C=C(\C)C(=O)O)cc(OC)c(OCOC)c12 | 127 to 128
3 | CC1(C)CCC(C)(C)c2cc(CC(=O)O)ccc21 | 149 to 150
4 | O=c1cc(-c2ccncc2)nc2n1CCCCC2 | 148 to 150
5 | COC(=O)c1ccc(OCCCN2CCC(C(O)(c3ccc(F)cc3)c3ccc(F)cc3)CC2)c(OC)c1 | 131 to 132
6 | CN(C)C(=O)N(c1ccc(OC(F)(F)F)c(Cl)c1)C(C(=O)O)c1ccc(Cl)cc1 (configuration not stated) | 77
7 | CC1(C)Oc2ccc(C#N)cc2C(C2=C(C(O)C(N)=O)C=CCC2)=C1O (configuration not stated) | 235 to 237
8 | Cc1ccc(-c2ccc(C)cc2C=CC#Cc2ccc(C(=O)O)cc2)cc1 | 61 to 67
9 | c1cn(Cc2ccc3[nH]c(C4CC4)nc3c2)cn1 | 184
10 | O=C(O)CCCSc1ccccc1O | 77 to 78
11 | C[C@@H](CO)NC(=S)[C@@H](CC(=O)OC(C)(C)C)NC(=O)OC(C)(C)C | 70 to 72
12 | Cc1nc2ccc3c(c2o1)C(=O)CC3 | 106 to 107
13 | O=C(c1ccc(Cl)cc1Cl)N1CCC(=NO)c2ccc(Cl)cc21 | 231 to 232
14 | CCOC(=O)c1cn(CC)c2nc(OC)c([N+](=O)[O-])cc2c1=O | 224 to 227
15 | CC(=O)Oc1c(C2CCN(CCCCNC(=O)c3ccc(NC(=O)c4ccc(Cl)cc4)cc3)CC2)ccc2c1CCCC2 | 254
16 | CCn1c(C)c(C(=O)c2ccccc2)c(N=Cc2ccccc2)c1-c1ccccc1 | 147 to 148
17 | Cc1nnc2nc(-c3cccc(C(F)(F)F)c3)cnn12 | 230 to 233
18 | O=[N+]([O-])c1cc(OCC2CCCSC2)c(Cl)cc1F (configuration not stated) | 100 to 103
19 | O=C1Nc2cccnc2N(C(=O)N2CCC(CCCN3CCCCC3)CC2)c2ccccc21 | 200
20 | CCCCCCCN(CCCCCSc1ncnc2[nH]ncc12)C(=O)NC(C)C | 81 to 83
21 | CC(=CC(N)[C@@H]1CN(c2ccc(-c3cccnc3)cn2)C(=O)O1)[N+](=O)[O-] (some centres not stated) | 207
22 | O=c1cc(NCCCN2CCN(c3cccc4c3OCCO4)CC2)cn[nH]1 | 158 to 160
23 | Cc1ccc(C(=O)[C@@H]2[C@@H](C)CCCC2(C)C)cc1Cl | 59 to 60

Row | Structure (SMILES) | melting point [°C]
24 | CCCCCCC(O)c1ccc2cc(OC)ccc2c1 (configuration not stated) | 71 to 74
25 | Cc1ccnc(SCc2nc3ccc(CC(=O)O)cc3[nH]2)c1 | 121 to 124
26 | O=C(CCl)c1ccc2cc(O)c(O)cc2c1 | > 320
27 | CCCCNCc1ccc2cc(O)ccc2c1 | 108 to 112
28 | O=C(O)CCc1cnoc1-c1ccc(F)cc1 | 126 to 127
29 | CCCCc1nc2c(N)nc(C)c(C)c2n1CC(C)(C)NC(=O)NC1CCCCC1 | 128 to 130
30 | CC(C)(C)CNc1cc(Cl)nc(NCC(C)(C)C)n1 | 95 to 98
31 | NC(=NCC(F)(F)F)Nc1ccnc(CCCCNC(=S)NCC(F)(F)F)n1 | 142 to 145
32 | O=C(O)c1c(F)c(F)c(O)c(Cl)c1F | 87 to 90
33 | OC1(c2ccccc2)CCN(CCN2CCN(Cc3cc(C(F)(F)F)cc(C(F)(F)F)c3)CC2c2ccc(Cl)c(Cl)c2)CC1 (configuration not stated) | 71 to 72
34 | Cn1ccnc1-c1ccc(C(=O)CNC(=O)[C@H](Cc2ccccn2)NC(=O)OC(C)(C)C)cc1 | 120 to 124
35 | Nc1nc2cccnc2c2c1nc(O)n2CC1CCOCC1 | 250 to 260
36 | COc1cc2ncnc(N3CCN(C(=O)NCc4ccc(Br)cc4)CC3)c2cc1OC | 211 to 212
37 | O=C(Nc1cccc([N+](=O)[O-])c1)C(Br)CCBr (racemic) | 75 to 76
38 | CCNC(=S)n1nc(Oc2ncc(C(F)(F)F)cc2Cl)cc1C | 74 to 75
39 | Cc1cc(-c2ccc(Cl)cc2)cnc1N=CN(C)C | 99
40 | O=C(NCCCc1ccncc1)N(CCCc1ccccc1)C(c1ccccc1)c1ccccc1 | 123 to 125
41 | CCc1nc2c(cnn2CC)c(NC2CCOCC2)c1CNC(=O)c1cc(C)cc(C(=O)NCc2ccc(Cl)c(-c3cccc(C=O)c3)c2)c1 | 153 to 156
42 | CC(C)(C)OC(=O)c1ncn2c1[C@@H]1CCCN1C(=O)c1c(I)cccc1-2 | 241 to 242
43 | O=C(NO)c1ccc2c(c1)CN(C(=O)OCc1cccnc1)C2 | 196 to 199
44 | CC(C)(C)OC(=O)NCc1cc(C(=O)O)ccn1 | 207
45 | CC(C)OC(=O)C1=C2SCC(=CC(=O)N(C)C)N2CC1 | 159 to 160
46 | CCOC(=O)c1c(Nc2ccccc2N)c(C)cn1C | 90

Row | Structure (SMILES) | melting point [°C]
47 | CCCCNC(=O)C(O[Si](C)(C)C(C)(C)C)c1ccccc1O (configuration not stated) | 72 to 74
48 | CC(C)CC1NCC(C)(C)NC1=O (configuration not stated) | 140 to 144
49 | CCOC(=O)CC(O)CC(O)C=CC(=C(c1ccc(F)cc1)c1ccc(F)cc1)n1nnnc1-c1ccccc1 (configuration not stated) | 160 to 162
50 | COCOc1c(-c2cccc(C=CC(=O)O)c2)ccc2c1C(C)(C)CCC2(C)C | 188 to 189
51 | CC(=O)NC[C@H]1CN(c2ccc(N3CCS(=O)(=O)CC3)c(F)c2)C(=O)O1 | 202 to 203
52 | CC(C)(NC(=O)C(CS)Cc1ccccc1)C(=O)O (configuration not stated) | 175 to 176
53 | CC(=O)c1cccc(-c2ccc(OC[C@H](O)CCc3cccnc3)cc2)c1 | 58 to 60
54 | C=CCN(CC=C)c1nc(NCC(=O)OC)n2oc(=O)nc2n1 | 173 to 174
55 | O=C(Cc1ccc(Cl)cc1)N1CCc2cc(S(=O)(=O)N3CCN(c4cccc(Cl)c4)CC3)ccc21 | 186 to 187
56 | COc1cc(-c2ccccc2C(F)(F)F)c(Cl)cc1C(=O)N1Cc2ccc(C(=O)N(C)CC(O)C(O)C(O)C(O)CO)n2Cc2ccccc21 (configuration not stated) | 150 to 151
57 | Nc1n[nH]c2cc(Br)ccc12 | 222 to 225
58 | CCCc1c(OCCCS(=O)(=O)c2ccc(CC(=O)O)c(Cl)c2Cl)ccc(C(C)=O)c1O | 180 to 181
59 | NC(=O)C(CCCCCOc1c(Cl)ccc(C=O)c1[N+](=O)[O-])N1CCCCC1 (configuration not stated) | 98 to 99
60 | NC(=O)c1cccc(OCCCCCBr)c1 | 98 to 99
61 | CCCCCCCCC1CC1C(N)=O (configuration not stated) | 109 to 110
62 | O=[N+]([O-])c1ccc(Cl)c(Cl)c1Br | 73
63 | N#Cc1cnc2c(Br)cccc2c1O | > 260
64 | C[C@@H](N(CC(=O)O)C(=O)c1ccc(C(F)(F)F)cc1)[C@](O)(Cn1cncn1)c1ccc(F)cc1F | 132 to 135
65 | O=C(NCC(=O)N(CC(=O)N1CCCCC1c1ccccc1)c1ccccc1)Nc1cccc(CO)c1 (racemic) | 104
66 | COc1cc(C=CC(=O)Nc2cnc3ccc(C(C)C)cc3c2-c2ccccc2Cl)cc(OC)c1OC(C)=O | 138
67 | CNC(=O)c1cc2c(nc(C)n2C)c2c1C(=O)CC1(Cc3ccccc3C1)N2 | 261

Other lines, results leading:

Row | melting point [°C] | Structure (SMILES)
68 | 72 to 72.5 | c1ccc(-c2csc(-c3cnn4cccnc34)c2)cc1
69 | 155 to 158 | C#CC[C@H](c1nc2cc(Cl)ccc2c(=O)n1Nc1ccccc1)N(CCCN)C(=O)c1cc(F)c(F)c(F)c1F
70 | 224 to 225 | O=c1nc(-c2cccc(Cl)n2)sc2ccccc12
71 | 196 to 207 | O=C(O)CCCc1cc2nc(Cl)ccc2n1S(=O)(=O)c1ccc(-n2cccn2)cc1
72 | 104 | Cc1c(C)c2ccc(OCCCc3ccccc3)cc2oc1=O
73 | 210 to 220 | CCN1c2ccccc2NC(=O)c2cccnc21
74 | 160 to 161 | COc1ccc2c(c1)N=C(NCc1cccnc1)c1ccccc1N2
75 | 231 to 232 | Cc1ccc2c(c1)NC(=O)c1ccccc1O2
76 | 134 to 136 | CCCOc1nc(N[C@@H](C)Cc2ccccc2)c2cnn(-c3ccccc3)c2n1
77 | 128 to 130 | Cn1ncc2c1-c1ccc(Cl)cc1C(c1ccccc1F)=NC2
78 | 125 to 126 | COc1ccc(-c2cc(NCc3ccccc3)nnc2-c2ccc(OC)cc2)cc1
79 | 205 | N#Cc1ncn2c(C(F)(F)F)cc(-c3ccc(Cl)cc3)nc12
80 | 81 | Cc1nc(-c2cccnc2)cs1
81 | 145 to 147 | CSc1cnc(NC(=O)c2ccccc2OC(C)=O)s1
82 | > 250 | NCC1Cc2cc(-c3ccccc3)cc(-c3ccccc3F)c2O1 (configuration not stated)
83 | 134 | CCOC(=O)c1cc(C)nc2c(OCc3ccccc3)cccc12
84 | 241 | O=c1nc(-c2cccc(OCc3ccccc3)n2)sc2ccccc12
85 | > 260 | O=C1c2ccccc2C(=O)c2sc(-c3cccs3)nc21

Row | melting point [°C] | Structure (SMILES)
86 | 70 to 71 | COc1ccc(Br)cc1OCc1ccccc1
87 | 238 to 240 | O=c1ccc(-c2c(-c3ccccc3)nn3ccccc23)nn1C1CCCCC1=NO (configuration not stated)
88 | 195 to 197 | CC(=O)OCC(=O)N1C(C(N)=O)Cc2c([nH]c3ccccc23)C1c1ccccc1 (configuration not stated)
89 | 212 to 213 | Cc1c(NC(=O)c2ccc(-c3ccc(Cl)s3)cc2)ccc2cc(CN3CCCCC3)cnc12
90 | 72 to 74 | FC(F)(F)COc1ccc(OCc2ccccc2)cc1
91 | 180 to 181 | O=C(NCC1(c2ccccc2)CCCCC1)Nc1ccc(Cl)c(Cl)c1
92 | > 300 | O=C(O)c1ccc(-c2ccc(OCc3ccccc3)cc2)cc1
93 | 263 to 264 | c1ccc(Nc2ncnc3[nH]nc(Nc4ccccc4)c23)cc1
94 | 220 | CCCC(=O)Nc1n[nH]c2cc(-c3ccc(O)cc3)c(-c3ccccc3)cc12
95 | 85 | Oc1ccc(F)c(-c2c(-c3ccccc3)cnc3c(C(F)(F)F)cccc23)c1
96 | 65 to 68 | COC(=O)c1ccc2c(Br)cccc2c1
97 | 64 | COc1ccc(C)cc1C(CCO)c1ccccc1 (configuration not stated)
98 | 201 to 202 | O=Cc1ccc2cc3ccccc3cc2c1
99 | 150 to 151 | CN1CCC(O)(c2csc3ccccc23)CC1
100 | 78 to 79 | O=C(c1ccc(F)cc1)N1CCC[C@H](c2nc(-c3ccccc3)no2)C1
101 | 65 to 70 | CCC(Cl)c1nc2c(C(F)(F)F)cccc2c(=O)o1 (configuration not stated)
102 | 158 to 160 | O=c1c(CO)cc(-c2ccc3occc3c2)nn1Cc1ccc(F)cc1
